Laboratory results from patent EP2441755A1 (Almirall, S.A., priority 2010, dated 2012).
Where two headings read alike, the source gives them in different places.

Experiments:
JAK3 (aa 795-1124) = molecular target: T1, JAK3 (aa 795-1124) (Homo sapiens, UniProt P52333); assay: In vitro JAK kinase assay (TR-FRET), JAK3; type: biochemical; settings: ATP 0.6 µM, poly (GT)-Biotin 140 nM, 30 minutes at room temperature
T1 construct: JAK3 (aa 795-1124); GST (N); purchased Carna Bioscences; host or cells: baculovirus expression system
Method: (§1) In vitro JAK kinase Assays
(§2) Compounds were screened for their ability to inhibit JAK1, JAK2 and JAK3 using the assays as indicated below.
(§3) The catalytic domains of human JAK1 (aa 850-1154), JAK2 (aa 826-1132), JAK3 (aa 795-1124) and Tyk2 (aa 871-1187) were expressed as N-terminal GST-fusion proteins using a baculovirus expression system and were purchased from Carna Bioscences. The enzymatic activity was assayed using as substrate a biotinylated peptide, poly (GT)-Biotin (CisBio). The peptide concentration in the reactions was 60 nM for JAK1, 20 nM for JAK2, 140 nM for JAK3 and 50 nM for Tyk2. The degree of phosphorylation was detected by TR-FRET (time-resolved fluorescence energy transfer).
(§4) IC50s of compounds were measured for each kinase in a reaction mixture containing the enzyme, ATP and the peptide in 8 mM MOPS (pH 7.0), 10 mM MgCl2, 0.05% β-mercaptoethanol, 0.45 mg/mL BSA. The ATP concentration in the reactions was 3 µM for JAK1, 0.2 µM for JAK2, 0.6 µM for JAK3 and 1.8 µM for Tyk2. The enzymatic reactions took place for 30 minutes at room temperature. Then, the reactions were stopped with 20 µL of quench detection buffer (50 mM HEPES, 0.5 M KF, EDTA 0.25 M, 0.1% (w/v) BSA, pH 7.5) containing 0.115 µg/mL of anti-phosphoTyr (PT66)-Cryptate (CisBio) and a variable concentration of SA-XL665 (CisBio) to keep the SA-B ratio constant. Incubate for 3 h and read on Victor 2V spectrofluorometer (PerkinElmer) set to read fluorescence resonance energy transfer.

JAK2 (aa 826-1132) = molecular target: T2, JAK2 (aa 826-1132) (Homo sapiens, UniProt O60674); assay: In vitro JAK kinase assay (TR-FRET), JAK2; type: biochemical; settings: ATP 0.2 µM, poly (GT)-Biotin 20 nM, 30 minutes at room temperature
T2 construct: JAK2 (aa 826-1132); GST (N); purchased Carna Bioscences; host or cells: baculovirus expression system
Method: as §1, §2, §3, §4

human JAK1 (aa 850-1154) = molecular target: T3, human JAK1 (aa 850-1154) (Homo sapiens, UniProt P23458); assay: In vitro JAK kinase assay (TR-FRET), JAK1; type: biochemical; settings: ATP 3 µM, poly (GT)-Biotin 60 nM, 30 minutes at room temperature
T3 construct: human JAK1 (aa 850-1154); GST (N); purchased Carna Bioscences; host or cells: baculovirus expression system
Method: as §1, §2, §3, §4

[1] = molecular target: T4, Recombinant human full-length Syk (Homo sapiens, UniProt P43405); assay: Syk enzyme assay - radioactive filtration kinase assay; type: biochemical
T4 construct: Recombinant human full-length Syk was supplied by Millipore; purchased Millipore
Method: Syk Enzyme assay- Radioactive filtration kinase assay
Recombinant human full-length Syk was supplied by Millipore. The activity of Syk kinase was assessed using a radioactive filtration kinase assay. […] The reaction was initiated by the addition of 14.5 µl of 0.36 µCi [γ-^33P] ATP (10 mCi/ml, PerkinElmer). This was prepared in a half-area NBS plate (Corning) and allowed to stand at room temperature for 40 min. 15 µl of reaction mixture was transferred to a filter plate (Millipore) previously pre-wetted with a solution of 75 mM phosphoric acid. The reaction was terminated with the addition of 200 µl phosphoric acid. The filter plate was washed three times under vacuum on a vacuum manifold (Millipore cat# MSVMHTS00) at 8" Hg vacuum level with 200 µl phosphoric acid per wash. 30 µl Optiphase™ Supermix (PerkinElmer) was added to each test well and allowed to incubate for at least 1 h before counting. Radioactivity counting was performed in a Wallac MicroBeta®, and the tyrosine phosphorylation activity by Syk was calculated.

LAD2 cells = LAD2 cells assay (degranulation, β-hexosaminidase release); type: cell-based; settings: Homo sapiens, 0.5 h; IgE-sensitized LAD2 cells, 30 min with compound, activated with 125 ng/ml streptavidin; released β-hexosaminidase; read-out: LAD2IC50
From the text: LAD2 is a human mast cell line depending on stem cell factor for its survival, maturation and differentiation. This mast cell line was established by the NIH from bone marrow aspirates from a patient with mast cell sarcoma. LAD2 cells resemble CD34+ - derived human mast cells as they have granules containing tryptase, histamine and β-hexosaminidase. They also express c-kit and FcεRI (Kirshenbaum, et al., Leukemia Research 27: 677-682, 2003).
Sensitization of LAD2 cells
Cells were sensitized (0.2x10^6 cells/ml) in its normal growth factor (Complete StemPro-34 SFM, Gibco 10639-011 containing StemPro-34 nutrient supplement (1/40); glutamine (2 mM) and supplemented with 100 ng/ml SCF) by adding 100 ng/ml of biotin-labeled IgE (USBiological) overnight (16-18 h, 37º, 5% CO2) in a humidified atmosphere (90%).
Compounds were prepared from a 10^-2M stock in 100% DMSO to give seven successive 1/3 dilutions in DMSO. From each concentration, 2 further 1/10 dilutions were prepared in release buffer (137 mM NaCl, 2.70 mM KCI, 0.4 mM NaH2PO4, 5.6 mM (D)-glucose, 1.8 mM CaCl2, 1.3 mM MgSO4, 0.025% BSA). Finally, 5 µl from each diluted concentration were transferred into the assay plate (flat 96-well Nunc). The final compound concentrations tested ranged from 1x10^-5M to […] with a final proportion of DMSO in the assay of 0.1 %. Control wells were treated with 0.1 % DMSO.
Sensitized LAD2 cells were centrifuged (300 g, 3 min, R.T.) and washed 2 times with release buffer. Cells were resuspended in release buffer and adjusted to a density of 0.2x10^6/ml. 45 µl of the adjusted cells were transfered to the assay plate (∼10,000cells/well) containg 5 µl of the final compound concentrations. LAD2 cells were incubated with the compound for 30 min (37 °C, 5% CO2 90% of humidity) and then activated with 125 ng/ml of streptavidin (Pierce 21125) for 30 min (37 °C, 5% CO2, 90% of humidity). After the activation, cells were centrifuged at 1200 g, 10 min, 12 °C and supernatats were removed and transfered to another well for determination of released β-hexosaminidase. Empty wells were filled with 50 µl of release buffer for determination of intracellular β-hexosaminidase. Cells were lysed with 2 cycles of freeze-thaw.
Cells were incubated for 90 minutes, 37 °C with 1 mM β-hexosaminidase substrate (p-nitrophenyl N-acetyl-D-glucosamide, in citric buffer, pH 4.5). Reaction was stopped with 0.4 M glycine solution (pH 10.0) and the plate is read immediately at 405 nm.

[2] = Syk 1nM final, poly-GT 100 µg/ml, [γ-33P] ATP, 40 min at room temperature, read-out: Syk IC50

T1 sequence (P52333 795-1124): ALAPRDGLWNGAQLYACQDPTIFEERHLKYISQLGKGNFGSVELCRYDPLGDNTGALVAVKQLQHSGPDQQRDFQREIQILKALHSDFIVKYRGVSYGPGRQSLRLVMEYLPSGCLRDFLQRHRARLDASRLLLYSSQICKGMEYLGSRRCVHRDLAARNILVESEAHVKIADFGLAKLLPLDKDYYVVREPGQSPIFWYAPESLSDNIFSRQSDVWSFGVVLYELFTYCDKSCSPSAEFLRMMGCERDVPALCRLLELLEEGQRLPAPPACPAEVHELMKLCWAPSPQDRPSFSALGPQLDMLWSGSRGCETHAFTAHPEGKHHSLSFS
T3 sequence (P23458 850-1154): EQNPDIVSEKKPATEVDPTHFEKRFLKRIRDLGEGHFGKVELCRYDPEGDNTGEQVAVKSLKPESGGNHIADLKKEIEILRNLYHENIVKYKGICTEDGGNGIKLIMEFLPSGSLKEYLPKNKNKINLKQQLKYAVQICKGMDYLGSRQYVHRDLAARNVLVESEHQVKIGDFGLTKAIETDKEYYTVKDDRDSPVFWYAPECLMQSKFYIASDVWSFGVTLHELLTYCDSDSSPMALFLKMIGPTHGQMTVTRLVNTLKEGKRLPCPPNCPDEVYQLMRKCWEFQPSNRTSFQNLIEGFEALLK
T2 sequence (O60674 826-1132): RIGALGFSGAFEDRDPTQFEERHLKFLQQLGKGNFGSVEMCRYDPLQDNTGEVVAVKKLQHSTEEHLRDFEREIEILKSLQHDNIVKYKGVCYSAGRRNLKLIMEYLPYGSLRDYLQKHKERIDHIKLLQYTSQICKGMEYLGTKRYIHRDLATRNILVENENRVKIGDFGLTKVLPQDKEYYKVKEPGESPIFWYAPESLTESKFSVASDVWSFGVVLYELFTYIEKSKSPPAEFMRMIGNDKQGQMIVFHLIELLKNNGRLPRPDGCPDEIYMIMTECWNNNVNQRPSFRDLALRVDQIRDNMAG

SMILES	IC50 (JAK3 (aa 795-1124))	IC50 (JAK2 (aa 826-1132))	IC50 (human JAK1 (aa 850-1154))	IC50 [1, 2]	IC50 [1]	IC50 (LAD2 cells)
O=C(O)c1ccc(C(=O)Nc2cc(Nc3cnccn3)nc(-c3ccnc(N4CCNCC4)c3)c2)cc1 [Example 79, 4-({[2'-Piperazin-1-yl-6-(pyrazin-2-ylamino)-2,4'-bipyridin-4-yl]amino}carbonyl) benzoic acid]	100 to 1000 nM	< 100 nM	–	–	8 nM	140 nM
O=C(Nc1cc(Nc2cnccn2)nc(-c2ccnc(N3CCNCC3)c2)c1)c1cccnc1 [Example 85, N-[2'-Piperazin-1-yl-6-(pyrazin-2-ylamino)-2,4'-bipyridin-4-yl]nicotinamide]	100 to 1000 nM	< 100 nM	> 1000 nM	–	6 nM	123 nM
O=C(O)C[C@H](Cc1ccccc1)C(=O)Nc1cc(Nc2cnccn2)nc(-c2ccnc(N3CCNCC3)c2)c1 [Example 100, (3S)-3-Benzyl-4-oxo-4-{[2'-piperazin-1-yl-6-(pyrazin-2-ylamino)-2,4'-bipyridin-4-yl]amino}butanoic acid]	100 to 1000 nM	100 to 1000 nM	> 1000 nM	–	–	–

The next lines start with results.

IC50 (JAK3 (aa 795-1124))	IC50 (JAK2 (aa 826-1132))	IC50 (human JAK1 (aa 850-1154))	IC50 [1, 2]	SMILES	IC50 [1]	IC50 (LAD2 cells)
100 to 1000 nM	< 100 nM	> 1000 nM	–	COc1cccc(CC(=O)Nc2cc(Nc3cnccn3)nc(-c3ccnc(N4CCNCC4)c3)c2)c1 [Example 78, 2-(3-Methoxyphenyl)-N-[2'-piperazin-1-yl-6-(pyrazin-2-ylamino)-2,4'-bipyridin-4-yl]acetamide]	–	–
100 to 1000 nM	< 100 nM	> 1000 nM	6 nM	O=C(Nc1cc(Nc2cnccn2)nc(-c2ccnc(N3CCNCC3)c2)c1)c1ccc(F)cc1 [Example 80, 4-Fluoro-N-[2'-piperazin-1-yl-6-(pyrazin-2-ylamino)-2,4'-bipyridin-4-yl]benzamide]	–	290 nM
100 to 1000 nM	< 100 nM	–	6 nM	O=C(O)c1cccc(C(=O)Nc2cc(Nc3cnccn3)nc(-c3ccnc(N4CCNCC4)c3)c2)c1 [Example 88, 3-({[2'-Piperazin-1-yl-6-(pyrazin-2-ylamino)-2,4'-bipyridin-4-yl]amino}carbonyl) benzoic acid]	–	81 nM
